Experiments:
[1] = cited from earlier work
[2] = Particle sizing by photon correlation spectroscopy, fenofibrate microparticles by RELGS process (Example 2); format: physicochemical; details: Lipoid E-80 and Tween-80 in liquefied carbon dioxide at 3000 psi expanded into water, 22° C.
Description: The particle sizing was performed by photon correlation spectroscopy using Submicron Particle Sizer-Autodilute Model 370 (NICOMP Particle Sizing Systems, Santa Barbara, Calif.). This instrument provides number weighted, intensity weighted, and volume weighted particle size distributions as well as multi-modality of the particle size distribution, if present.

Compound: CC1=C(/C=C/C(C)=C/C=C/C(C)=C/C=C/C=C(C)/C=C/C=C(C)/C=C/C2=C(C)CCCC2(C)C)C(C)(C)CCC1 [beta-carotene]
- nanoparticle size ([1]; expansion of ethane into a viscous gelatin solution): 300 nm

Compound: CC[C@H](C)C(=O)O[C@H]1C[C@@H](C)C=C2C=C[C@H](C)[C@H](CC[C@@H]3C[C@@H](O)CC(=O)O3)[C@H]21 [lovastatin]
- particle size ([1]; micro-particles by rapid expansion from liquefied-gas solution in the supercritical region, most particle sizes reported for organic materials): 5-100 micron

Compound: CC(C)OC(=O)C(C)(C)Oc1ccc(C(=O)c2ccc(Cl)cc2)cc1 [Fenofibrate, fenofibrate]
- mean particle size [2]: about 200 nm

From patent US6177103A, “Processes to generate submicron particles of water-insoluble compounds” (RTP Pharma, Inc., priority 1999, dated 2001)
